The values below come from patent EP2758383B1, “AROMATIC AMIDOTHIAZOLES, COSMETIC AND DERMATOLOGICAL PREPARATIONS CONTAINING THEM, AND THEIR USE FOR THE TREATMENT AND PROPHYLAXIS OF UNWANTED PIGMENTATION OF THE SKIN” (priority 2011, dated 2013).

The target of one assay is T1, humane Tyrosinase (Homo sapiens, UniProt P14679).
T1 sequence (P14679 19-529): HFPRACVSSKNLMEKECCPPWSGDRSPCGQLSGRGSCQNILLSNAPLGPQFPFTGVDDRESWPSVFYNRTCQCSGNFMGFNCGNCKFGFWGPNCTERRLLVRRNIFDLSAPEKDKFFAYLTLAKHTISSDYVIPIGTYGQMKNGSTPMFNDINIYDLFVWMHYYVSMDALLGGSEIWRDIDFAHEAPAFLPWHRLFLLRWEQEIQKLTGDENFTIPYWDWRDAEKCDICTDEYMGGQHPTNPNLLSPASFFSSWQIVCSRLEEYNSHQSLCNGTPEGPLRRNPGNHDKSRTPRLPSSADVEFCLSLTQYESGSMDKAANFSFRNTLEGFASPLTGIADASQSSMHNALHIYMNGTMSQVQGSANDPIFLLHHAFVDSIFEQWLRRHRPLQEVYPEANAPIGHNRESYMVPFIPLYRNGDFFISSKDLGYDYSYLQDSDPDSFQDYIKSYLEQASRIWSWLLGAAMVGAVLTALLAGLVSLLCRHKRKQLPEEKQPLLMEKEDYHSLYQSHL
Description: Enzyme test: conversion of L-DOPA to L-dopaquinone by human tyrosinase, MBTH detection, absorption at 490 nm. Type of assay: biochemical. To be noted: Konzentration 10 µg/mL; substrate L-DOPA; read-out: Inhibition (% der Kontrolle).
Description: Die Wirksamkeit der Thiazole wurde mit einem Enzymtest belegt, in der Umsatz von L-DOPA zu L-Dopachinon durch eine humane Tyrosinase gemessen wurde.
Consider `O=C(Nc1nc(-c2ccc(O)cc2O)cs1)c1ccccn1` [N-(4-(2,4-dihydroxyphenyl)thiazol-2-yl)picolinamid], for which the inhibition (usually the relative decrease from the control value, in per cent) at 10 µg/mL came to 82%.
Take `c1ccc(Nc2nc(-c3ccncc3)cs2)nc1` [N-(pyridin-2-yl)-4-(pyridin-4-yl)thiazol-2-amin, reference compound]: the inhibition at 10 µg/mL was 16%.
On the same count and under the same terms, with `C=CCN(C1=NC(C)(C)C(=C)S1)c1ccc(C)cc1C` [N-allyl-N-(2,4-dimethylphenyl)-4,4-dimethyl-5-methylene-4,5-dihydrothiazol-2-amin, reference compound] the figure was 13%; with `CN(c1ccccc1)c1nc(-c2ccncc2)cs1` [N-methyl-N-phenyl-4-(pyridin-4-yl)thiazol-2-amin, reference compound], 13%.
The same measure, in the same setting: with `O=C(Nc1nc(-c2ccc(O)cc2O)cs1)c1ccccc1` [N-(4-(2,4-dihydroxyphenyl)thiazol-2-yl)benzamid] the figure was 98%; with `O=C(Nc1nc(-c2ccc(O)cc2O)cs1)c1ccc(CO)nc1` [N-(4-(2,4-dihydroxyphenyl)thiazol-2-yl)-6-(hydroxymethyl)nicotinamid], 98%.
Same read-out and setting: the figure for `O=C(Nc1nc(-c2ccc(O)cc2O)cs1)c1ccc(CO)cc1` [N-(4-(2,4-dihydroxyphenyl)thiazol-2-yl)-4-(hydroxymethyl)benzamid] is 99%; for `CC(C)(C)c1ccc(C(=O)Nc2nc(-c3ccc(O)cc3O)cs2)cc1` [4-(tert-butyl)-N-(4-(2,4-dihydroxyphenyl)thiazol-2-yl)benzamid] it is 27%; for `CC(=O)c1ccc(C(=O)Nc2nc(-c3ccc(O)cc3O)cs2)cc1` [4-acetyl-N-(4-(2,4-dihydroxyphenyl)thiazol-2-yl)benzamid] it is 92%.
For `N#Cc1ccc(C(=O)Nc2nc(-c3ccc(O)cc3O)cs2)cc1` [4-cyano-N-(4-(2,4-dihydroxyphenyl)thiazol-2-yl)benzamid], the inhibition at 10 µg/mL was determined as 96%.
Same read-out and setting: the figure for `O=C(Nc1nc(-c2ccc(O)cc2O)cs1)c1ccc2c(c1)OCO2` [N-(4-(2,4-dihydroxyphenyl)thiazol-2-yl)benzo[d][1,3]dioxole-5-carboxamide] is 92%.

The assay is the same for the next values; noted with them: read-out: Inhibition (% der Kontrolle).
On to `CC(C)(O)c1ccc(C(=O)Nc2nc(-c3ccc(O)cc3O)cs2)cc1` [N-(4-(2,4-dihydroxyphenyl)thiazol-2-yl)-4-(2-hydroxypropan-2-yl)benzamid], for which the inhibition at 10 µg/mL worked out at 96%.
